{
  "source": "patent US6447997B1",
  "about": "“Gene coding for GADD153 as a clinical diagnostic and prognostic in cancer therapy” (Research Development Foundation, priority 1997, dated 2002)",
  "test_system": "GADD153 mRNA",
  "assay": "GADD153 mRNA level in UMSCC10b cells and cDDP-resistant sublines after cDDP exposure, RT-PCR",
  "assay_type": "cell-based, human",
  "experimental": "In order to permit use of needle aspiration biopsies of tumors, the highly sensitive technique of RT-PCR rather than the less sensitive technique of Northern blot analysis was utilized throughout for quantitation of mRNA. The magnitude of the change in GADD153 mRNA level as a function of cisplatin (cDDP) concentration was determined by treating UMSCC10b cells with 0.1, 1, 10, or 100 μM cDDP for 1 h and quantifying GADD153 mRNA in untreated and treated cells harvested at 24 h by RT-PCR. The procedure is detailed in the attached examples. The results in FIG. 1 indicate that a concentration-dependent magnitude of increase in GADD153 mRNA levels reached 6-fold at the highest cDDP concentration tested. FIG. 2 depicts the time course of increase in GADD153 following a 1 h exposure to 100 μM cDDP. An increase in GADD153 mRNA level was evident at 12 h after cDDP exposure, and the peak occurred at 24 h followed by a decline to baseline levels by 96 h. β-ACTIN was used as an internal standard to normalize the data.\nWithout being held to a particular mechanism of action, the present inventors believe that the magnitude of increase in GADD153 mRNA level reflects the extent of tumor cell damage in a tumor treated with a chemotherapeutic agent. Supportive evidence was obtained using sublines of UMSCC10b selected for cDDP resistance. The parental cells, the 3-fold resistant subline UMSCC10b-Pt/S6 (15,16), and the 6-fold resistant subline UMSCC10b-Pt/S15 (15,16) were exposed to 2, 7, 12 μM cDDP for 1 h. These levels of exposure correspond to the IC10, IC50, and IC70 for the parental cell line, respectively.\nTo assure that the resistant variants had not lost their capacity to activate the GADD153 gene, and to validate the change in GADD153 level as a molecular marker of tumor injury in drug resistant as well as sensitive cells, the effect of cDDP applied at equitoxic concentrations was compared between the parental cells and the two resistant sublines.\nTo determine the time course of the change in GADD153 mRNA level, UMSCC10b cells were incubated with 100 μM cDDP for 1 h and total RNA was extracted at 0, 1, 2, 6, 12, 24, 48, 72 and 96 h after treatment. To analyze the effect of cDDP concentration on the expression of GADD153 , UMSCC10b cells were incubated for 1 h with various cDDP concentrations (0, 0.1, 1, 10, 100 and 1000 μM) and RNA was extracted 24 h after cDDP exposure.\nUMSCC10b cells were harvested in 10 ml of denaturing solution (4 M guanidinium thiocyanate, 25 mM sodium citrate, pH 7, 0.5% sarcosyl, and 0.1 M 2-mercaptoethanol. After adding 1 ml of 2 M sodium acetate (pH 4), 10 ml of water-saturated phenol (pH 4) and 2 ml of chloroform:isoamyl alcohol (49:1) to the denatured cells, they were mixed thoroughly, placed on ice for 15 min, and centrifuged at 2800 rpm for 20 min at 4° C. The aqueous phase was collected and mixed with 10 ml of isopropyl alcohol, placed for 1 h at −20° C. and centrifuged. The pellet was dissolved in 1.8 ml of denaturing solution and 2 ml of isopropyl alcohol, placed for 1 h at −20° C. and centrifuged. The pellet was washed with 1 ml of 80% ethanol and then centrifuged at 5000 rpm for 10 min at room temperature. The RNA pellet was dried for 20 min in a tissue culture hood and resuspended in 100 μl of DEPC-treated water. Of this solution, 50 μl was used immediately for cDNA synthesis.\nGADD153 message levels were quantified using a modification of the technique reported by Horikoshi et al (20). Total RNA acquired from the biopsies or xenografts was reverse-transcribed using random hexamers to produce cDNA (20,21,22). Serial dilutions of the CDNA were made and 5 μl of each dilution was placed in a sterile 0.5 ml Eppendorf tube. […]",
  "key": {"[1]": {"conditions": "UMSCC10b cells, 1 h exposure to 100 μM cDDP"}},
  "data": [
    {"smiles": "[NH2][Pt]([NH2])([Cl])[Cl]", "note": "[cDDP, cisplatin]", "values": [
      {"measurement": "magnitude of the increase in GADD153 mRNA level", "setting": "3-fold resistant variant UMSCC10b-Pt/S6, 2, 7, 12 μM cDDP for 1 h (equimolar)", "result": "lower than in the parental cells"},
      {"measurement": "expression of GADD153", "setting": "6-fold resistant variant UMSCC10b-Pt/S15, 2, 7, 12 μM cDDP for 1 h (equimolar)", "result": "did not increase above its baseline level"},
      {"measurement": "time at which increase in GADD153 mRNA level was evident", "setting": "[1]", "result": 12, "unit": "h"},
      {"measurement": "time of decline of GADD153 mRNA to baseline levels", "setting": "[1]", "result": "≤ 96", "unit": "h"},
      {"measurement": "time of peak GADD153 mRNA level", "setting": "[1]", "result": 24, "unit": "h"},
      {"measurement": "magnitude of increase in GADD153 mRNA levels", "setting": "UMSCC10b cells, 1 h exposure, highest cDDP concentration tested (100 μM), harvested at 24 h", "result": 6, "unit": "fold"},
      {"measurement": "change in expression of GADD153 at equitoxic concentrations", "setting": "parental cells and two resistant sublines, IC10, IC50, IC70", "result": "no difference between the cell lines"}
    ]}
  ]
}
